Experimental data taken from patent publication US20210008104A1, “COMPOSITIONS AND METHODS FOR INHIBITING HIV-1 REVERSE TRANSCRIPTASE” (The United States of America, as represented by the …, priority 2017, published 2021).
“Also recorded” adds a separate entry of the source.

What was measured:
[1] = molecular target: T1, human DNA polymerase β (Homo sapiens, UniProt P06746); assay: Qualitative reverse reaction assay with PPi analogs; assay type: biochemical; set-up: made in house; settings: 1 mM PPi analog, 10 mM MgCl2, 5′-32P-labeled nicked DNA
Protocol: Reverse reaction assay. Pol β (1 μM) was pre-incubated with 100 nM nicked DNA containing either a matched or mismatched primer terminus for 5 min at 37° C. in reaction buffer. A solution with 20 mM MgCl2 containing 2 mM PPi or pyrophosphate analog in reaction buffer was used to initiate the reaction. Following mixing, the final concentrations were 500 nM pol β, 50 nM nicked DNA, 10 mM MgCl2, and 1 mM PPi or pyrophosphate analog. Aliquots (5 or 10 μl) were removed at various times and quenched in an equal volume of 0.3 M EDTA, pH 8.0. Reaction substrates and products were separated and visualized as described above.

[2] = molecular target: T1, human DNA polymerase β; settings: [32P]PPi into dCTP, slope/enzyme-DNA complex
Protocol: Pyrophosphate exchange assay. Pol β (2.5 μM) was pre-incubated with 500 nM unlabeled nicked DNA substrate containing a matched primer terminal base pair (G-C, template-primer) in reaction buffer with 20 mM MgCl2 and manually mixed (1:1, v/v) with a prewarmed solution of reaction buffer, 2 mM [^32P] PPi, and 100 μM dCTP. Aliquots were withdrawn at various time points and quenched with 1 vol. of 0.3 M EDTA. Quenched reactions mixtures were applied to PEI cellulose plates and developed in 0.3 M potassium phosphate buffer, pH 8.0. Plates were scanned followed by quantitation using a phosphorimager and ImageQuant software.

[3] = molecular target: T1, human DNA polymerase β; assay: Single-turnover analysis of reverse reaction (pyrophosphorolysis / PNP-dependent) on nicked DNA; assay type: biochemical; set-up: made in house
Protocol: Reaction buffer. All kinetic measurements were performed in a buffer containing 50 mM MES, 25 mM Tris, 25 mM ethanolamine (pH 7.5 adjusted at 37° C.), 100 mM KCl, 10 mM MgCl2 supplemented with 10% glycerol, 100 μg/ml bovine serum albumin, 1 mM DTT, and 0.1 mM EDTA. […] DNA polymerase β was used to fill a 1-nucleotide gapped DNA substrate with either [^32P] dCTP or [^35S] dATP to create a 3'-radiolabeled nicked DNA substrate. The reaction mixture contained 50 mM Tris-Cl, pH 7.4 (37° C.), 100 mM KCl, 10 mM MgCl2, 1 mM DTT, 2.5 μM gapped DNA, […] [^32P] dCTP or [^35S] dATP. The single-nucleotide DNA substrate was similar to the nicked substrate described above, except the primer strand was one nucleotide shorter (3'-nucleotide deleted). Gap filling was initiated by addition of pol β and incubated at 37° C. for 5-10 min. The reaction was quenched by addition of 0.5 M EDTA (0.1 vol). To remove enzyme and unincorporated nucleotides, the mixture was extracted with phenol-chloroform-isoamyl alcohol (25:24:1) followed by two passages through BioSpin 6 columns. Aliquots of the labeling reaction were removed before and following the extraction and removal steps to determine final DNA substrate concentration. Pre- and post-aliquots (1 μl) were spotted onto PEI cellulose plates and developed in 0.375 M KH2PO4, pH 4.0. The ratio (post/preextraction) was used to correct the initial DNA concentration for loss or dilution of substrate. Kinetic parameters for the reverse reaction were determined under single turnover conditions (E/DNA=10) at 37° C. […] Time courses were initiated by mixing with an equal volume of a 20 mM MgCl2 and 50 μM dNTP trap solution in reaction buffer. The dNTP trap prevents re-insertion of radiolabeled product dNTP and corresponds to the identity of the nucleotide triphosphate produced during the reaction. […] EDTA (0.1 or 0.2 M) was used as the quenching agent. Substrates and products were resolved by TLC in either 0.2 or 0.3 M NaPi, pH 7.0 buffer. Kinetic analysis. Single-turnover time courses were fit to a single exponential equation to yield the first-order rate constants (kobs) at a given concentration of GMPPNP, PPi or PNP. Under these conditions, kobs was dependent on the concentration of substrate. A secondary plot of the concentration dependence of kobs was hyperbolic and fitted by nonlinear least-squares method to equation (1) where kmax is the intrinsic rate constant for the step limiting the first nucleotide insertion (forward reaction) or removal (reverse reaction). kobs=kmax[S]/[…] (1) […] Unless noted, kinetic constants represent best-fit parameters and their standard error.

[4] = molecular target: T1, human DNA polymerase β; assay: Overall equilibrium constant determination (gapped vs nicked DNA); assay type: biochemical; set-up: made in house; settings: dCTP
Protocol: A mixture of 500 nM pol β with single-nucleotide gapped DNA (pol/DNA=10; templating G or C) containing various concentrations of PPi (500-2,000 μM) or PNP (20, 50, 100 μM) was mixed with an equal volume of 20 mM MgCl2 containing 60-100 nM dCTP or 50 μM dGMPPNP and incubated at 37° C. for various time intervals. Aliquots (10 μl) were withdrawn at various times and quenched with an equal volume of 0.3 M EDTA. The reactions were quenched after 10-80 s and reaction products separated on a sequencing gel. The substrate (gapped DNA) and product (nicked DNA) bands were quantitated, and the overall equilibrium constant calculated; Keq=[nicked DNA][PPi]/[gapped DNA][dCTP] or [nicked DNA] [PNP]/[gapped DNA][dGMPPNP]. The mean and standard error for 6 independent determinations are reported in the text.

[5] = molecular target: T2, pol β-nicked DNA complexes (Homo sapiens, UniProt P06746); assay: Time-lapse crystallography of the reverse reaction
T2 construct: made in house
Protocol: Binary complex crystals with nicked DNA were grown as previously described43. The time-lapse crystallography was performed as before11 and is briefly summarized here. Binary pol β/DNA complex crystals were first transferred to a cryosolution containing 15% ethylene glycol, 50 mM imidazole, pH 7.5, 20% PEG3350, 90 mM sodium acetate, 2 mM PNP and 50 mM CaCl2) for 1 h. These ground state (GS) ternary complex crystals were then transferred to a cryosolution containing 200 mM MgCl2 for varying times. All reactions were stopped by freezing the crystals at 100K before data collection at the home source, 1.54 Å, or the Advanced Photon Source, 1.0 Å (Argonne National Laboratory). In house data collection was done on a SATURN92 CCD detector system mounted on a […] rotating anode generator. This allows for anomalous data detection after phasing by molecular replacement. […] Initial models were determined using molecular replacement with the open binary (PDB ID 3ISB) or closed ternary (PDB ID 2FMS) structures of pol β and all Rfree flags were taken from the starting model. […] The metal-ligand coordination restraints were generated by ReadySet (PHENIX) and not used until the final rounds of refinement. […] Ramachandran analysis determined 100% of nonglycine residues lie in allowed regions and at least 97% in favored regions.

[6] = molecular target: T1, human DNA polymerase β; assay: Removal of chain-terminated or mismatched primer termini by reverse reaction; assay type: biochemical; set-up: made in house; settings: G-A or G-T primer terminal mismatch
Protocol: The removal of a terminated primer terminus by the reverse reaction required enzymatic synthesis of the nicked DNA substrate. A pre-incubated mixture of 4 μM pol and 0.4 μM one-nucleotide gapped DNA was mixed 1:1 (v/v) with 20 mM MgCl2 and 0.2 μM various triphosphates of chain-terminating nucleotides ([…], or dFdCTP). The gap-filling reaction proceeded at 37° C. for 10-20 min to generate a terminated nicked DNA substrate. An aliquot was removed and quenched to verify complete gap filling (16-mer). The reverse reaction was initiated by addition of an equal volume of 10 mM MgCl2 and 250 μM PPi or PNP. An aliquot (time=3 min) was removed, quenched, and analyzed on a denaturing gel. The removal of a terminal mismatch by a reverse reaction was followed by incubation of […] Pol with 100 nM 5'-^32P-labeled nicked DNA substrate with a matched (G-C) or mismatched (G-A or G-T) primer terminal base pair for 5 min at 37° C. This was mixed with a solution of 20 mM MgCl2 and 2 mM PPi or PNP (1:1, v/v) to initiate the reaction.

[7] = molecular target: T1, human DNA polymerase β; assay: Gap filling DNA synthesis kinetic assay (single-turnover insertion); assay type: biochemical; set-up: made in house
Protocol: Gap filling DNA synthesis kinetic assay. To measure the rate of the first insertion (kpol) and apparent equilibrium nucleotide dissociation constant (Kd), single-turnover kinetic assays (enzyme/DNA=10) were performed as described previously. Briefly, a pre-incubated solution of enzyme and DNA was rapidly mixed with various concentrations of MgCl2 and dGMPPNP using a Kintek RQF-3 rapid quench-flow. Reactions were quenched with 0.25 M EDTA.
where S=dGMPPNP, PPi, or PNP. For the insertion of dGMPPNP, the secondary plot was fit to a quadratic equation (equation (2)) due to its high affinity relative to the enzyme concentration.
kobs=(kpol)(((Kd+[dGMPPNP]+[EDNA])((Kd+[dGMPPNP]+[EDNA])^2)−(4[dGMPPNP][EDNA]))^0.5)/2[EDNA] (2)

[8] = single-turnover gap filling, relative to natural nucleotide

NCCC(O)(P(=O)(O)O)P(=O)(O)O [pamidronate]
ability to serve as substrate for the reverse reaction (qualitative) [1]: poor

O=P(O)(O)C(Cl)(Cl)P(=O)(O)O [clodronate]
ability to serve as substrate for the reverse reaction (qualitative) [1]: poor

O=P(O)(O)OP(=O)(O)O [PPi, pyrophosphate]
observed rate for the exchange reaction [2]: 0.028 s⁻¹ | kobs for removal of 32P-labeled dAMP ([3]; 1 mM PPi, 3′-[32P]dAMP primer terminus, single-turnover): 0.030 s⁻¹ | kobs for removal of 35S-labeled dAMP ([3]; 1 mM PPi, 3′-[35S]dAMP (phosphorothioate) primer terminus, single-turnover): 0.039 s⁻¹ | Kd ([3]; nicked DNA with 3′-[32P]dCMP, single-turnover, secondary plot of kobs, read-out: apparent PPi binding affinity (Kd)): ~90 µM | observed rate constant for the reverse reaction (krev) ([3]; nicked DNA, single-turnover (enzyme/DNA>1)): ~0.03 s⁻¹ | phosphorothioate (thio-elemental) effect krev(O)/krev(S) ([3]; removal of 3′-terminal Rp-phosphorothioate nucleotide vs dAMP): no phosphorothioate elemental effect | calculated equilibrium constant ([4]; 1000 μM PPi): 62,700 | calculated equilibrium constant ([4]; 2000 M PPi): 82,300 | overall equilibrium constant Keq ([4]; different PPi concentrations, mean and standard error of 6 determinations): 68,700±7,200 | reverse reaction in crystals ([5]; binary pol β-nicked DNA crystals soaked with ligand): did not generate dNTP | removal of a 3′ mismatched nucleotide [6]: very poor

CC(O)(P(=O)(O)O)P(=O)(O)O [etidronate]
ability to serve as substrate for the reverse reaction (qualitative) [1]: moderate

Nc1nc2c(ncn2[C@H]2C[C@H](O)[C@@H](COP(=O)(O)OP(=O)(O)NP(=O)(O)O)O2)c(=O)[nH]1 [dGMPPNP, 2′-deoxyguanosine-5′-[(β, γ)-imido]triphosphate]
inhibition of the forward reaction ([7]; binds tightly and is inserted slowly): good inhibitor | binding affinity [7, 8]: increased | rate of insertion [7, 8]: strongly diminished; also recorded: two orders of magnitude

O=P(O)(O)NP(=O)(O)O [PNP, imidodiphosphate]
complexes that had undergone a reverse reaction (occupancy refinement) ([5]; short Mg2+ soak of PNP-Ca2+ ternary complex crystals): approximately 40%
